Results on five compounds are retold here after paper PMC9413440, “An Iterative Approach Guides Discovery of the FabI Inhibitor Fabimycin, a Late-Stage Antibiotic Candidate with In Vivo Efficacy against Drug-Resistant Gram-Negative Infections” (ACS Central Science, 2022).

Values after ≈ are worked out from the molar mass of the structure shown.

The test system of one assay is A. baumannii AR-0273. The assay can be described thus: MIC, broth microdilution (CLSI). The note with it: Acinetobacter baumannii, AR0273; A. baumannii AR-0273 clinical isolate. Format: cell-based. The method, then:
(§1) II. Materials and Methods for Biological Experiments
(§2) S. aureus ATCC 29213 and E. coli MG1655 were obtained from the American Type Culture Collection (ATCC). E. coli BW25113 and E. coli JW5503 were obtained from the Keio Collection. AR-bank strains were obtained from the Centers for Disease Control and Prevention and FDA Antibiotic Resistance Isolate Bank.
(§3) Antimicrobial susceptibility tests
(§4) Susceptibility testing was performed in biological triplicate, unless noted otherwise, using the micro-dilution broth method as outlined by the Clinical and Laboratory Standards Institute. Bacteria were cultured with cation-adjusted Mueller Hinton broth (Sigma Aldrich, catalogue number: 90922). […]
(§5) NH3: m/z 391.2 → 171.0. Fabimycin: m/z 405.3 → 145.3. Power analysis was not used to determine the number of replicates. Error bars represent the standard error of the mean of three biological replicates. All compounds evaluated in biological assays were ≥95% pure.
For orientation: In broth dilution the organism is exposed to a series of concentrations in liquid medium.

The next assay concerns E. coli AR-0085. As to the kind of experiment: MIC, broth microdilution (CLSI). In kind it is cell-based. The conditions noted are these: Escherichia coli, AR0085; E. coli AR-0085 clinical isolate. The method, then:
as §1, §2, §3, §4, §5

The next assay relates to E. coli AR-0048. As to the kind of experiment: MIC, broth microdilution (CLSI). In kind it is cell-based. The conditions noted are these: Escherichia coli, AR0048; E. coli AR-0048 clinical isolate. The method, then:
as §1, §2, §3, §4, §5

In a further assay the test system is K. pneumoniae AR-0560. The assay can be described thus: MIC, broth microdilution (CLSI). In kind it is cell-based. The note with it: Klebsiella pneumoniae, AR0560; K. pneumoniae AR-0560 clinical isolate. The method, then:
as §1, §2, §3, §4, §5

For another assay, the system named is A. baumannii AR-0033. As to the kind of experiment: MIC, broth microdilution (CLSI). The note with it: Acinetobacter baumannii, AR0033; A. baumannii AR-0033 clinical isolate; † = dose-independent trailing growth. Format: cell-based. How it is done: as §1, §2, §3, §4, §5
The test system of a further assay is E. coli MG1655. The assay can be described thus: MIC, broth microdilution (CLSI). Format: cell-based. The note with it: Escherichia coli. The method, then: as §1, §2, §3, §4, §5
In the next assay the test system is S. aureus ATCC 29213. As to the kind of experiment: MIC, broth microdilution (CLSI). Format: cell-based. The note with it: Staphylococcus aureus, ATCC29213; S. aureus 29213. The method, then: as §1, §2, §3, §4, §5
The next assay deals with A. baumannii AR-0299. As to the kind of experiment: MIC, broth microdilution (CLSI). The conditions noted are these: Acinetobacter baumannii, AR0299; A. baumannii AR-0299 clinical isolate; † = dose-independent trailing growth. In kind it is cell-based. The method, then: as §1, §2, §3, §4, §5
In the next assay the test system is K. pneumoniae BAA-2472. As to the kind of experiment: MIC, broth microdilution (CLSI). In kind it is cell-based. The conditions noted are these: Klebsiella pneumoniae, BAA2472. The method, then: as §1, §2, §3, §4, §5
The next assay concerns K. pneumoniae AR-0066. As to the kind of experiment: MIC, broth microdilution (CLSI). The note with it: Klebsiella pneumoniae, AR0066; K. pneumoniae AR-0066 clinical isolate. Format: cell-based. The method, then:
as §1, §2, §3, §4, §5

The next assay has as its system K. pneumoniae AR-0113. The assay can be described thus: MIC, broth microdilution (CLSI). Format: cell-based. The note with it: Klebsiella pneumoniae, AR0113; K. pneumoniae AR-0113 clinical isolate. How it is done:
as §1, §2, §3, §4
(§6) Error bars represent the standard error of the mean of three biological replicates. All compounds evaluated in biological assays were ≥95% pure.

In another assay the test system is A. baumannii AR-0313. The assay can be described thus: MIC, broth microdilution (CLSI). In kind it is cell-based. The note with it: Acinetobacter baumannii, AR0313; A. baumannii AR-0313 clinical isolate; † = dose-independent trailing growth. How it is done: as §1, §2, §3, §4, §6
The next assay deals with E. coli ΔtolC (JW5503). The assay can be described thus: MIC, broth microdilution (CLSI). Format: cell-based, Escherichia coli. The conditions noted are these: Escherichia coli. How it is done:
as §1, §2, §3, §4, §5

Assay [1] deals with panel of 10 clinical isolates (two E. coli, four K. pneumoniae, four A. baumannii). The assay can be described thus: MIC, Gram-negative clinical isolate challenge panel. In kind it is cell-based. The note with it: 10 clinical isolates; read-out: MIC, all strains of the clinical isolate challenge panel.

For `Cc1c(CN(C)C(=O)/C=C/c2cnc3c(c2)CC2(CC(N)C2)C(=O)N3)oc2ccccc12` (racemic) [(±)-3], the MIC (commonly the least concentration at which growth counts as inhibited) in the assay with A. baumannii AR-0273 stood at 16 µg/mL (≈ 37.2 µM); with E. coli AR-0085, 16 µg/mL (≈ 37.2 µM); in the assay with E. coli AR-0048, 16 µg/mL (≈ 37.2 µM); in the assay with K. pneumoniae AR-0560, 8 µg/mL (≈ 18.6 µM); against A. baumannii AR-0033 it was 16 µg/mL (≈ 37.2 µM); against E. coli MG1655 it was 4 µg/mL (≈ 9.29 µM). Further, the minimum inhibitory concentration (MIC) against S. aureus ATCC 29213 stood at 0.016 µg/mL (≈ 0.0372 µM); with A. baumannii AR-0299, 16 µg/mL (≈ 37.2 µM); in the assay on K. pneumoniae BAA-2472, 8 µg/mL (≈ 18.6 µM); in the assay on K. pneumoniae AR-0066, 8 µg/mL (≈ 18.6 µM); in the assay on K. pneumoniae AR-0113, 16 µg/mL (≈ 37.2 µM); against A. baumannii AR-0313, 32 µg/mL (≈ 74.3 µM). In the assay with E. coli ΔtolC (JW5503), inhibition of growth (MIC) required 0.062 µg/mL (≈ 0.144 µM).

On to `Cc1c(CN(C)C(=O)/C=C/c2cnc3c(c2)CC2(CC(CN)C2)C(=O)N3)oc2ccccc12` (racemic) [(±)-4], for which the values for the minimum inhibitory concentration (MIC) in the assay on E. coli MG1655, in the assay with S. aureus ATCC 29213 and in the assay on E. coli ΔtolC (JW5503) were 16 µg/mL (≈ 36 µM), 0.031 µg/mL (≈ 0.0697 µM) and 0.125 µg/mL (≈ 0.281 µM), respectively.

With `Cc1c(CN(C)C(=O)/C=C/c2cnc3c(c2)CC2(CCC(N)CC2)C(=O)N3)oc2ccccc12` (racemic) [(±)-5], the MIC was 16 µg/mL (≈ 34.9 µM) in the assay with E. coli MG1655, 0.016 µg/mL (≈ 0.0349 µM) in the assay on S. aureus ATCC 29213 and 0.062 µg/mL (≈ 0.135 µM) against E. coli ΔtolC (JW5503).

For `Cc1c(CN(C)C(=O)/C=C/c2cnc3c(c2)CC2(CCC(CN)CC2)C(=O)N3)oc2ccccc12` (racemic) [(±)-6], the figures for the MIC with E. coli MG1655, against S. aureus ATCC 29213 and against E. coli ΔtolC (JW5503) were 16 µg/mL (≈ 33.9 µM), 0.031 µg/mL (≈ 0.0656 µM) and 0.062 µg/mL (≈ 0.131 µM), respectively.

As to `Cc1c(CN(C)C(=O)/C=C/c2cnc3c(c2)CCC(N)C(=O)N3)oc2ccccc12` (racemic) [(±)-7], the minimum inhibitory concentration (MIC) in assay [1] was at most 8 µg/mL; against A. baumannii AR-0273, 8 µg/mL (≈ 19.8 µM); against E. coli AR-0085, 4 µg/mL (≈ 9.89 µM); with E. coli AR-0048, 4 µg/mL (≈ 9.89 µM); against K. pneumoniae AR-0560, 8 µg/mL (≈ 19.8 µM); against A. baumannii AR-0033, 4 µg/mL (≈ 9.89 µM). The minimum inhibitory concentration (MIC) in the assay on E. coli MG1655 was determined as 4 µg/mL (≈ 9.89 µM); in the assay with S. aureus ATCC 29213, 0.016 µg/mL (≈ 0.0396 µM); against A. baumannii AR-0299, 4 µg/mL (≈ 9.89 µM); in the assay on K. pneumoniae BAA-2472, 8 µg/mL (≈ 19.8 µM); against K. pneumoniae AR-0066, 8 µg/mL (≈ 19.8 µM); against K. pneumoniae AR-0113, 8 µg/mL (≈ 19.8 µM). The minimal inhibitory concentration (MIC) stood at 8 µg/mL (≈ 19.8 µM) with A. baumannii AR-0313 and 0.031 µg/mL (≈ 0.0766 µM) in the assay with E. coli ΔtolC (JW5503).
